Results published in ChEMBL document CHEMBL4613266, “Discovery and Structure Relationships of Salicylanilide Derivatives as Potent, Non-acidic P2X1 Receptor Antagonists” (J Med Chem, 2020).
pIC50: −log10 of the molar value.

Tests used:
Type in all cases: cell-based
P2X purinoceptor 1 = P2X purinoceptor 1 (Homo sapiens, UniProt P51575); test: Antagonist activity at non-desensitizing human P2X1 receptor ( P2X2/P2X1 chimera) expressed in human 1321N1 cells assessed as inhibition of ATP-induced calcium influx pre-incubated for 30 mins before ATP stimulation by FLIPR assay relative to control
P2X purinoceptor 2 = molecular target: T1, P2X purinoceptor 2 (Homo sapiens, UniProt Q9UBL9); test: Antagonist activity at human P2X2 receptor expressed in human 1321N1 cells assessed as inhibition of ATP-induced cytosolic calcium influx preincubated for 30 mins followed by ATP addition by Fluo-4 AM dye-based fluorescence assay
T1 sequence (Q9UBL9 whole entry): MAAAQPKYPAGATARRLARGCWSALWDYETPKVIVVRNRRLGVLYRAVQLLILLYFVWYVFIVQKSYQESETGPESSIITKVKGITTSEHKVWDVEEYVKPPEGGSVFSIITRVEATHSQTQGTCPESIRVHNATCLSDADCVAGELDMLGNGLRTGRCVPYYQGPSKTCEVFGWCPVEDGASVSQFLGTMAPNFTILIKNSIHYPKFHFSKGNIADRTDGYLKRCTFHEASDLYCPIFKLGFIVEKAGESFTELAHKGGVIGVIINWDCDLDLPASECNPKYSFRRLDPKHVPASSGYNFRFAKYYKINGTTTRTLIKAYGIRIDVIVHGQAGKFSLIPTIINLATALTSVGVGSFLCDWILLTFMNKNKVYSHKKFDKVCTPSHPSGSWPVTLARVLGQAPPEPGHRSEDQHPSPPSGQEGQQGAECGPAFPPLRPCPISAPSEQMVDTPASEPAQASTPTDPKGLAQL

P2X purinoceptor 4 = molecular target: T2, P2X purinoceptor 4 (Homo sapiens, UniProt Q99571); test: Antagonist activity at human P2X4 receptor expressed in human 1321N1 cells assessed as inhibition of ATP-induced cytosolic calcium influx preincubated for 30 mins followed by ATP addition by Fluo-4 AM dye-based fluorescence assay
T2 sequence (Q99571 whole entry): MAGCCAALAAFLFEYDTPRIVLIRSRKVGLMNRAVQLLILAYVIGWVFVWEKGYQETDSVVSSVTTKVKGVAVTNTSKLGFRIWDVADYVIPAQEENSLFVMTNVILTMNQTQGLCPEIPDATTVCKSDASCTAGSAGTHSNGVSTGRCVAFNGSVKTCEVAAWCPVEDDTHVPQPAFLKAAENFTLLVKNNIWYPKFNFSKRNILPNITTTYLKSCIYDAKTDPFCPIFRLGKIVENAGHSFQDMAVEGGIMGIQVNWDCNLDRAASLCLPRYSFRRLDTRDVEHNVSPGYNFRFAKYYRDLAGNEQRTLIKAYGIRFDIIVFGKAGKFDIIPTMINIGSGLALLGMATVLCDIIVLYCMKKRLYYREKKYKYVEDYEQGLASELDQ

P2X purinoceptor 7 = molecular target: T3, P2X purinoceptor 7 (Homo sapiens, UniProt Q99572); test: Antagonist activity at human P2X7 receptor expressed in human 1321N1 cells assessed as inhibition of ATP-induced cytosolic calcium influx preincubated for 30 mins followed by ATP addition by Fluo-4 AM dye-based fluorescence assay
T3 sequence (Q99572 whole entry): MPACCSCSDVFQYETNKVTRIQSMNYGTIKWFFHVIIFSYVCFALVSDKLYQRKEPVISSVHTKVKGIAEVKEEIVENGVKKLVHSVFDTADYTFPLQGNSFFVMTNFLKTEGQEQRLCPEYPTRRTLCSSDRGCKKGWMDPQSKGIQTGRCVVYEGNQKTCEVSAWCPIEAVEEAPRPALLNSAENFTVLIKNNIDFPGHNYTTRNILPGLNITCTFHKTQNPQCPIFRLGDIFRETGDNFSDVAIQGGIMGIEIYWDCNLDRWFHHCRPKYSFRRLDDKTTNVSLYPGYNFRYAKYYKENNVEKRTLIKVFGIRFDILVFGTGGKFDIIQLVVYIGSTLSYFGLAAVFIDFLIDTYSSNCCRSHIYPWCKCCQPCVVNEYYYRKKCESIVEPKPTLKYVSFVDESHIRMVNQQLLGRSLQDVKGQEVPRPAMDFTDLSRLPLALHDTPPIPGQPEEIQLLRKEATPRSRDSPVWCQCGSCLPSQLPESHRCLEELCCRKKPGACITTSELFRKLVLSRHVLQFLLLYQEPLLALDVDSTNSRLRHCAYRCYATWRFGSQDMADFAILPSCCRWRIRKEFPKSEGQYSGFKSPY

[1] = molecular target: T4, P2X purinoceptor 1 (Homo sapiens) (UniProt P51575); test: Antagonist activity at non-desensitizing human P2X1 receptor ( P2X2/P2X1 chimera) expressed in human 1321N1 cells assessed as inhibition of ATP-induced calcium influx at 10 uM pre-incubated for 30 mins before ATP stimulation by FLIPR assay relative to control
T4 sequence (whole entry): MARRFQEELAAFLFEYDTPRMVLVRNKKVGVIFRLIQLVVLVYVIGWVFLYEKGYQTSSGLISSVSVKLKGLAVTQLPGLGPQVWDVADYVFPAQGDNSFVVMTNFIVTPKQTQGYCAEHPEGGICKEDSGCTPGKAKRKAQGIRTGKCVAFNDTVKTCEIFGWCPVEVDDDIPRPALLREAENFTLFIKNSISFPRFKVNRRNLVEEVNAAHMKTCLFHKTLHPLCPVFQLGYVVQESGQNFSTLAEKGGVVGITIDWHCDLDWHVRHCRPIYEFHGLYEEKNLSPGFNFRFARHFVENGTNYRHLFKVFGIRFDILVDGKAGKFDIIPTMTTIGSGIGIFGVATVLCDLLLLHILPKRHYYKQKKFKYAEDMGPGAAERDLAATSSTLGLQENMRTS

[2] = molecular target: T5, P2X purinoceptor 2 (Homo sapiens) (UniProt Q9UBL9); test: Antagonist activity at human P2X2 receptor expressed in human 1321N1 cells assessed as inhibition of ATP-induced cytosolic calcium influx at 10 uM preincubated for 30 mins followed by ATP addition by Fluo-4 AM dye-based fluorescence assay relative to control
T5 sequence (whole entry): T1 sequence (Q9UBL9 whole entry)

P2X purinoceptor 3 = molecular target: T6, P2X purinoceptor 3 (Homo sapiens, UniProt P56373); test: Antagonist activity at human P2X3 receptor expressed in human 1321N1 cells assessed as inhibition of ATP-induced cytosolic calcium influx preincubated for 30 mins followed by ATP addition by Fluo-4 AM dye-based fluorescence assay
T6 sequence (P56373 whole entry): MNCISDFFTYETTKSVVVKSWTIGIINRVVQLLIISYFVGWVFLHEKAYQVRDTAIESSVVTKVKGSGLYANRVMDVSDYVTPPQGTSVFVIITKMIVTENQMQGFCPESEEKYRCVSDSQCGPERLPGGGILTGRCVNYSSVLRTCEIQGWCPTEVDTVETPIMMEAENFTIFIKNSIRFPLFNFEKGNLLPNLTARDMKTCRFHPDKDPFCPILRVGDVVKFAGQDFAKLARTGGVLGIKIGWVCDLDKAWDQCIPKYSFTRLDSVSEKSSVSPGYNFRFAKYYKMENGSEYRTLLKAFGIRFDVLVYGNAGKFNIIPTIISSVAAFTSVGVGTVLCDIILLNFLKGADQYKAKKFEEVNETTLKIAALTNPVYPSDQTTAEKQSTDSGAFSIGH

[3] = molecular target: T7, P2X purinoceptor 3 (Homo sapiens) (UniProt P56373); test: Antagonist activity at human P2X3 receptor expressed in human 1321N1 cells assessed as inhibition of ATP-induced cytosolic calcium influx at 10 uM preincubated for 30 mins followed by ATP addition by Fluo-4 AM dye-based fluorescence assay relative to control
T7 sequence (whole entry): T6 sequence (P56373 whole entry)

SMILES	pIC50 (P2X purinoceptor 1)	inhibition [1] [%]	further results
O=C(Nc1cc(C(F)(F)F)cc(C(F)(F)F)c1)c1ccc2ccccc2c1O	6.47	–	pIC50 (P2X purinoceptor 2): < 5.00; pIC50 (P2X purinoceptor 4): 6.14; pIC50 (P2X purinoceptor 7): 6.10
O=C(Nc1cc(O)cc(O)c1)c1cc(Cl)ccc1O	< 5.00	4	–
O=C(Nc1cc(C(F)(F)F)cc(C(F)(F)F)c1)c1cccc([N+](=O)[O-])c1O	6.06	112	–
O=C(Nc1cc(C(F)(F)F)cc(C(F)(F)F)c1)c1c(O)cccc1O	5.10	75	–
C#Cc1cccc(NC(=O)c2cc(Cl)ccc2O)c1	5.87	60	–
O=C(Nc1cc([N+](=O)[O-])cc(C(F)(F)F)c1)c1cc(Cl)ccc1O	7.50	81	pIC50 (P2X purinoceptor 2): < 5.00; inhibition [2]: 5%; pIC50 (P2X purinoceptor 3): < 5.00; inhibition [3]: 16%; pIC50 (P2X purinoceptor 4): 7.37; pIC50 (P2X purinoceptor 7): 6.84
COc1ccc(O)c(C(=O)Nc2cc(C(F)(F)F)cc(C(F)(F)F)c2)c1	6.12	91	–
O=C(NCc1cc(C(F)(F)F)cc(C(F)(F)F)c1)c1cc(Cl)ccc1O	5.82	111	–
O=C(Nc1ccc(F)cc1)c1cc(Cl)ccc1O	6.04	93	–
Oc1ccc(Cl)cc1CNc1cc(C(F)(F)F)cc(C(F)(F)F)c1	5.42	122	–
O=C(Nc1ccc(Cl)cc1)c1cc(Cl)ccc1O	6.70	55	–
CC(C)(C)c1cccc(NC(=O)c2cc(Cl)ccc2O)c1	6.25	100	–
O=C(Nc1cc(C(F)(F)F)cc(C(F)(F)F)c1)c1cccnc1O	< 5.00	9	–
O=C(Nc1cc(C(F)(F)F)cc(C(F)(F)F)c1)c1ccccc1[N+](=O)[O-]	5.07	61	–
O=C(Nc1cccnc1)c1ccccc1O	< 5.00	3	–
O=C(Nc1cccc(C(F)(F)F)c1)c1ccccc1O [SALFLUVERINE]	5.89	75	–
O=C(Nc1cc([N+](=O)[O-])cc([N+](=O)[O-])c1)c1cc(Cl)ccc1O	5.36	62	–
O=C(Nc1cc(C(F)(F)F)cc(C(F)(F)F)c1)c1ccccc1CO	< 5.00	37	–
O=C(Nc1ccc2cc[nH]c2c1)c1ccccc1O	< 5.00	11	–
O=C(Nc1ccc([N+](=O)[O-])cc1)c1cc(Cl)ccc1O	–	43	–
CN(C(=O)c1cc(Cl)ccc1O)c1cc(C(F)(F)F)cc(C(F)(F)F)c1	5.39	88	–
O=C(Nc1cc(C(F)(F)F)cc(C(F)(F)F)c1)c1cc(O)ccc1O	5.47	109	–

SMILES	pIC50 (P2X purinoceptor 1)	inhibition [1] [%]	further results
O=C(Nc1cc(C(F)(F)F)cc(C(F)(F)F)c1)c1ccccc1Cl	3.27	100	–
O=C(Nc1cc(C(F)(F)F)cc(C(F)(F)F)c1)c1cc([N+](=O)[O-])ccc1O	5.60	99	–
Nc1ccccc1C(=O)Nc1cc(C(F)(F)F)cc(C(F)(F)F)c1	5.00	67	–
O=C(Nc1cc(C(F)(F)F)cc(C(F)(F)F)c1)c1ccncc1O	5.28	60	–
O=C(CNc1cc(C(F)(F)F)cc(C(F)(F)F)c1)c1cc(Cl)ccc1O	5.75	104	–
NS(=O)(=O)c1cccc(NC(=O)c2ccccc2O)c1	< 5.00	21	–
CN1CCN(C(=O)Nc2cc(C(F)(F)F)cc(C(F)(F)F)c2)C1=O	< 5.00	0	–
O=C(Nc1cc(C(F)(F)F)cc(C(F)(F)F)c1)c1cnccc1O	< 5.00	31	–
O=C(Nc1cc(C(F)(F)F)cc(C(F)(F)F)c1)c1cccc(Cl)c1	3.86	82	–
O=C(Nc1ccc2ncccc2c1)c1ccccc1O	< 5.00	28	–
O=C(Nc1cccc([N+](=O)[O-])c1)c1cc(Cl)ccc1O	6.76	65	–
O=C(Nc1ccccc1C(F)(F)F)c1cc(Cl)ccc1O	< 5.00	28	–
Cc1ccc(O)c(C(=O)Nc2cc(C(F)(F)F)cc(C(F)(F)F)c2)c1	6.63	91	–
O=C(Nc1cccc(S(=O)(=O)C(F)(F)F)c1)c1cc(Cl)ccc1O	6.47	83	–
Cc1cccc(C(=O)Nc2cc(C(F)(F)F)cc(C(F)(F)F)c2)c1O	6.18	102	–
Cc1cc(C)cc(NC(=O)c2cc(Cl)ccc2O)c1	6.49	64	–
O=C(Nc1cc(Cl)ccc1O)c1cc(C(F)(F)F)cc(C(F)(F)F)c1	≤ 5.00	48	–
COc1cc(NC(=O)c2cc(Cl)ccc2O)cc(OC)c1	6.04	80	–
O=C(Nc1cc(C(F)(F)F)cc(C(F)(F)F)c1)c1cccc(C(F)(F)F)c1	5.14	63	–
N#Cc1ccc(NC(=O)c2cc(Cl)ccc2O)cc1	< 5.00	38	–
O=C(Nc1cc(C(F)(F)F)cc(C(F)(F)F)c1)c1cccc(O)c1	5.31	100	–
O=C(Nc1cc(C(F)(F)F)cc(C(F)(F)F)c1)c1cc(F)ccc1O	5.78	96	–
